Test results taken from paper PMC8296573, “Synthesis and Biological Evaluation of Fingolimod Derivatives as Antibacterial Agents” (ACS Omega, 2021).
≈ marks a conversion by molar mass, not a printed value. Read-outs that look alike come from different tables or passages of the source.

Assays:
[1] = test system: S. aureus ATCC 25923; experiment: Antibacterial activity, pre-exposure (planktonic cells and biofilm formation); format: cell-based, Staphylococcus aureus; conditions: for MIC / inhibition at 5 µM / inhibition at 10 µM / inhibition at 15 µM / inhibition at 25 µM: Staphylococcus aureus, ATCC25923; for inhibition at 5 µM / inhibition at 10 µM / inhibition at 15 µM / inhibition at 25 µM / Average inhibition %, biofilms viability / Average inhibition %, planktonic cells viability: pre-exposure, ± SD
Outline: (§1)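 Growth prevention was tested by adding compounds together with the inoculum. Plates were incubated 18 h at 37 °C. Viability was read by resazurin fluorescence and biomass by crystal violet absorbance at 595 nm.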

[2] = test system: P. aeruginosa ATCC 9027; experiment: Antibacterial activity, pre-exposure; format: cell-based, Pseudomonas aeruginosa; conditions: for Average inhibition %, biofilms viability / Average inhibition %, planktonic cells viability / inhibition at 50 µM / inhibition at 100 µM / inhibition at 150 µM / inhibition at 200 µM: P. aeruginosa ATCC 9027, pre-exposure, ± SD; for MIC / inhibition at 50 µM / inhibition at 100 µM / inhibition at 150 µM / inhibition at 200 µM: Pseudomonas aeruginosa; for inhibition at 50 µM / inhibition at 100 µM / inhibition at 150 µM / inhibition at 200 µM: ATCC9027
Outline: as §1

[3] = test system: A. baumannii NCTC 13423; experiment: Antibacterial activity, pre-exposure; format: cell-based, Acinetobacter baumannii; conditions: for Average inhibition %, biofilms viability / Average inhibition %, planktonic cells viability / inhibition at 10 µM / inhibition at 15 µM / inhibition at 25 µM / inhibition at 50 µM: A. baumannii NCTC 13423, pre-exposure, ± SD; for inhibition at 10 µM / inhibition at 15 µM / inhibition at 25 µM / inhibition at 50 µM / MIC: Acinetobacter baumannii, NCTC13423
Outline: as §1

[4] = test system: S. aureus ATCC 25923; experiment: Antibacterial activity, post-exposure on preformed 18-h-old biofilms; format: cell-based, Staphylococcus aureus; conditions: for Average inhibition %, biofilms viability / Average inhibition %, planktonic cells viability / inhibition at 25 µM / inhibition at 50 µM / inhibition at 100 µM / inhibition at 200 µM: ± SD; for inhibition at 25 µM / inhibition at 50 µM / inhibition at 100 µM / inhibition at 200 µM: Staphylococcus aureus; for inhibition at 25 µM: ATCC25923, 25 µM; for inhibition at 50 µM: ATCC25923, 50 µM; for inhibition at 100 µM: ATCC25923, 100 µM; for inhibition at 200 µM: ATCC25923, 200 µM
Outline: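 Biofilms grown 18 h without compound, medium then replaced and compound added for a further 24 h. Planktonic OD and resazurin (20 μM final) fluorescence (ex 560/em 590 nm) read; washed biofilms stained with 20 μM resazurin 30 min at 37 °C, then ethanol-fixed and crystal violet-stained, absorbance 595 nm.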

[5] = 10 µM, read-out: Average inhibition %, biofilms biomass
[6] = 10 µM, read-out: Average inhibition %, planktonic cells turbidity
[7] = 15 µM, read-out: Average inhibition %, biofilms biomass
[8] = 15 µM, read-out: Average inhibition %, planktonic cells turbidity
[9] = 25 µM, read-out: Average inhibition %, biofilms biomass
[10] = 25 µM, read-out: Average inhibition %, planktonic cells turbidity
[11] = 50 µM, read-out: Average inhibition %, biofilms biomass
[12] = 50 µM, read-out: Average inhibition %, planktonic cells turbidity
[13] = read-out: Average inhibition %, biofilms biomass
[14] = read-out: Average inhibition %, planktonic cells turbidity

`CCCCCCCCc1ccc(CC(N)(CO)CO)cc1` [Compound 44, 2-Amino-2-(4-octylbenzyl)propane-1,3-diol] was tested, and the MIC ([1]; lowest concentration with no visible growth (>90% inhibition of turbidity and viability of planktonic cells), 18 h, read-out: MIC S. aureus ATCC 25923) was 15 to 25 µM (≈ 4.4 to 7.34 µg/mL), the inhibition at 5 µM ([1]; 5 µM, read-out: Average inhibition %, biofilms biomass) was 23.2 ± 23.4% and the inhibition at 5 µM ([1]; 5 µM, read-out: Average inhibition %, planktonic cells turbidity) was 18.4 ± 6.2%. For the same compound, the inhibition at 10 µM [1, 5] was 36.6 ± 27.8%, the inhibition at 10 µM [1, 6] was 31.2 ± 8.9% and the inhibition at 15 µM [1, 7] was 76.6 ± 21.5%. For the same compound, the inhibition at 15 µM [1, 8] was 79.2 ± 28.2%, the inhibition at 25 µM [1, 9] was 93.1 ± 4.2% and the inhibition at 25 µM [1, 10] was 99.1 ± 0.7%. The MIC ([1]; read-out: MIC (S. aureus)) was 15 to 25 µM (≈ 4.4 to 7.34 µg/mL), the “Average inhibition %, biofilms viability” value ([1]; 5 µM) was 24.9 ± 12.6% and the “Average inhibition %, planktonic cells viability” value ([1]; 5 µM) was 0 ± 0%. The “Average inhibition %, biofilms viability” value ([1]; 10 µM) was 44.4 ± 4.9%, the “Average inhibition %, planktonic cells viability” value ([1]; 10 µM) was 0 ± 0% and the “Average inhibition %, biofilms viability” value ([1]; 15 µM) was 76.2 ± 29.5%. For the same compound, the “Average inhibition %, planktonic cells viability” value ([1]; 15 µM) was 66.8 ± 54.1%, the “Average inhibition %, biofilms viability” value ([1]; 25 µM) was 99.7 ± 0% and the “Average inhibition %, planktonic cells viability” value ([1]; 25 µM) was 100 ± 0.2%. For the same compound, the “Average inhibition %, biofilms viability” value ([2]; 50 µM) was 9 ± 8%, the “Average inhibition %, planktonic cells viability” value ([2]; 50 µM) was 31.4 ± 12.8% and the “Average inhibition %, biofilms viability” value ([2]; 100 µM) was 43 ± 44.4%. The “Average inhibition %, planktonic cells viability” value ([2]; 100 µM) was 95.8 ± 3.5%, the “Average inhibition %, biofilms viability” value ([2]; 150 µM) was 42.2 ± 50.3% and the “Average inhibition %, planktonic cells viability” value ([2]; 150 µM) was 92.1 ± 9.3%. For the same compound, the “Average inhibition %, biofilms viability” value ([2]; 200 µM) was 34.5 ± 36.6%, the “Average inhibition %, planktonic cells viability” value ([2]; 200 µM) was 88.7 ± 10.2% and the MIC ([2]; ATCC9027, pre-exposure, Inactive = no activity up to 200 μM, > = some inhibition but no MIC reached, read-out: MIC P. aeruginosa ATCC 9027) was greater than 200 µM. It also gave an MIC ([2]; ATCC9027, supplementary molecular formula strings sheet, read-out: MIC (P. aeruginosa)) greater than 200 µM, an inhibition at 50 µM [2, 11] of 35.2 ± 19.9% and an inhibition at 50 µM [2, 12] of 28.4 ± 10.9%. The inhibition at 100 µM ([2]; 100 µM, read-out: Average inhibition %, biofilms biomass) was 57.7 ± 30.4%, the inhibition at 100 µM ([2]; 100 µM, read-out: Average inhibition %, planktonic cells turbidity) was 93.7 ± 2.6% and the inhibition at 150 µM ([2]; 150 µM, read-out: Average inhibition %, biofilms biomass) was 54.7 ± 35.2%. The inhibition at 150 µM ([2]; 150 µM, read-out: Average inhibition %, planktonic cells turbidity) was 92.2 ± 4.8%, the inhibition at 200 µM ([2]; 200 µM, read-out: Average inhibition %, biofilms biomass) was 48.7 ± 28.5% and the inhibition at 200 µM ([2]; 200 µM, read-out: Average inhibition %, planktonic cells turbidity) was 88.5 ± 4.4%. The “Average inhibition %, biofilms viability” value ([3]; 10 µM) was 0.6 ± 1%, the “Average inhibition %, planktonic cells viability” value ([3]; 10 µM) was 12.3 ± 2.4% and the “Average inhibition %, biofilms viability” value ([3]; 15 µM) was 8.6 ± 7.8%. For the same compound, the “Average inhibition %, planktonic cells viability” value ([3]; 15 µM) was 9.2 ± 5.8%, the “Average inhibition %, biofilms viability” value ([3]; 25 µM) was 88.7 ± 15.2% and the “Average inhibition %, planktonic cells viability” value ([3]; 25 µM) was 83.5 ± 27.6%. For the same compound, the “Average inhibition %, biofilms viability” value ([3]; 50 µM) was 99.9 ± 1%, the “Average inhibition %, planktonic cells viability” value ([3]; 50 µM) was 99.8 ± 0.5% and the inhibition at 10 µM [3, 5] was 0%. The inhibition at 10 µM [3, 6] was 0%, the inhibition at 15 µM [3, 7] was 5.6 ± 6.5% and the inhibition at 15 µM [3, 8] was 2.8 ± 3.7%. For the same compound, the inhibition at 25 µM [3, 9] was 69.4 ± 13.7%, the inhibition at 25 µM [3, 10] was 88.1 ± 19% and the inhibition at 50 µM [3, 11] was 86.2 ± 2.3%. The inhibition at 50 µM [3, 12] was 98.3 ± 1.2%, the MIC ([3]; pre-exposure, Inactive = no activity up to 50 μM, > = some inhibition but no MIC reached, read-out: MIC A. baumannii NCTC 13423) was 25 to 50 µM (≈ 7.34 to 14.7 µg/mL) and the MIC ([3]; supplementary molecular formula strings sheet, read-out: MIC (A. baumannii)) was 25 to 50 µM (≈ 7.34 to 14.7 µg/mL). The “Average inhibition %, biofilms viability” value ([4]; 25 µM) was 21 ± 11.5%, the “Average inhibition %, planktonic cells viability” value ([4]; 25 µM) was 3.8 ± 6.6% and the “Average inhibition %, biofilms viability” value ([4]; 50 µM) was 38.2 ± 8.2%. The “Average inhibition %, planktonic cells viability” value ([4]; 50 µM) was 56.1 ± 15.4%, the “Inhibition of viability and total biomass of preformed biofilms” value ([4]; 100 μM) was “at least 70%” and the “Average inhibition %, biofilms viability” value ([4]; 100 µM) was 74 ± 21.5%. For the same compound, the “Average inhibition %, planktonic cells viability” value ([4]; 100 µM) was 99.8 ± 0.6%, the “Average inhibition %, biofilms viability” value ([4]; 200 µM) was 98.5 ± 0.1% and the “Average inhibition %, planktonic cells viability” value ([4]; 200 µM) was 100.1 ± 0.1%. The inhibition at 25 µM [4, 13] was 36 ± 3.3%, the inhibition at 25 µM [4, 14] was 6.1 ± 10.6% and the inhibition at 50 µM [4, 13] was 51.6 ± 10.7%. For the same compound, the inhibition at 50 µM [4, 14] was 58.6 ± 10.2%, the inhibition at 100 µM [4, 13] was 70.5 ± 19.2% and the inhibition at 100 µM [4, 14] was 84.7 ± 3.3%. The inhibition at 200 µM [4, 13] was 92 ± 1.2% and the inhibition at 200 µM [4, 14] was 85.9 ± 5.3%.
